Results taken from ChEMBL document CHEMBL1795321, “Synthesis and in vitro evaluation of ambrisentan analogues as potential endothelin receptor antagonists” (Bioorg Med Chem Lett, 2011).
Active and inactive are the calls of the source. The rule behind the calls is not given here.

Biological target: T1, Endothelin receptor type A (Oryctolagus cuniculus) (UniProt A5A8K3)
T1 sequence (whole entry): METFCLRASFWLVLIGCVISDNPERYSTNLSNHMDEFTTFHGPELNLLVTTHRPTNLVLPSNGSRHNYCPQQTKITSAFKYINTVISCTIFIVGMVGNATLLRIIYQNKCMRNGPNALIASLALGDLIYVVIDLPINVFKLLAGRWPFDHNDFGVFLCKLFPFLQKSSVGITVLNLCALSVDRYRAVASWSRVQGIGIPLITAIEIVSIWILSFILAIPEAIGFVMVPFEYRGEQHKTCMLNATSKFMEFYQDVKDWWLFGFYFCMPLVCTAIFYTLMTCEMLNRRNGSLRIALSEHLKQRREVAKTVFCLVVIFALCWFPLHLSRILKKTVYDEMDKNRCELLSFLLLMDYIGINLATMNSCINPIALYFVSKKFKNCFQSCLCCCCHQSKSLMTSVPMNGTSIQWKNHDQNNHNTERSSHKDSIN
Assay: Inhibition of endothelin A receptor in New Zealand white rabbit aortic rings assessed as inhibition of endothelin-1-induced vascular contraction at 10^-6 M

Row | SMILES | inhibition
1 | Cc1cc(C)nc(OC(C(=O)OCc2ccccc2)C(CO)(c2ccccc2)c2ccccc2)n1 (stereo not drawn) | inactive
2 | CCCCCCCC(=O)OCC(c1ccccc1)(c1ccccc1)C(Oc1nc(C)cc(C)n1)C(=O)O (stereo not drawn) | 5.61%
3 | Cc1cc(C)nc(OC(C(=O)O)C(COC(=O)c2ccncc2)(c2ccccc2)c2ccccc2)n1 (stereo not drawn) | 13.2%
4 | Cc1ccc(S(=O)(=O)OCC(c2ccccc2)(c2ccccc2)C(Oc2nc(C)cc(C)n2)C(=O)O)cc1 (stereo not drawn) | inactive
5 | Cc1cc(C)nc(OC(C(=O)O)C(COC(=O)CCc2ccccc2)(c2ccccc2)c2ccccc2)n1 (stereo not drawn) | inactive
6 | Cc1cccc(C(=O)OCC(c2ccccc2)(c2ccccc2)C(Oc2nc(C)cc(C)n2)C(=O)O)c1 (stereo not drawn) | inactive
7 | Cc1cc(C)nc(OC(C(=O)O)C(C#N)(c2ccccc2)c2ccccc2)n1 (racemic) | 42.2%
8 | Cc1cc(C)nc(OC(C(=O)O)C(COC(=O)CCC(=O)O)(c2ccccc2)c2ccccc2)n1 (stereo not drawn) | inactive
9 | COc1ccccc1Oc1c(NS(=O)(=O)c2ccc(C(C)(C)C)cc2)nc(-c2ncccn2)nc1OCCO | 22.5%
10 | Cc1cc(C)nc(OC(C(=O)O)C(COC(=O)c2ccccc2)(c2ccccc2)c2ccccc2)n1 (stereo not drawn) | 8.09%
11 | Cc1cc(C)nc(OC(C(=O)O)C(COC(=O)Cc2ccccc2)(c2ccccc2)c2ccccc2)n1 (stereo not drawn) | inactive
12 | Cc1cc(C)nc(OC(C(=O)O)C(Cc2ccccc2)(c2ccccc2)c2ccccc2)n1 (stereo not drawn) | 11.8%
13 | Cc1cc(C)nc(OC(C(=O)O)C(COC(=O)CCCC(=O)O)(c2ccccc2)c2ccccc2)n1 (stereo not drawn) | 3.47%
14 | COc1ccc(C(=O)OCC(c2ccccc2)(c2ccccc2)C(Oc2nc(C)cc(C)n2)C(=O)O)cc1 (stereo not drawn) | inactive
15 | Cc1cc(C)nc(OC(C(=O)O)C(COC(=O)c2cccnc2)(c2ccccc2)c2ccccc2)n1 (stereo not drawn) | 7.82%
16 | Cc1cc(C)nc(OC2C(=O)OCC2(c2ccccc2)c2ccccc2)n1 (stereo not drawn) | 14.3%

Other lines, results leading:

Row | inhibition | SMILES
17 | 23.2% | Cc1cc(C)nc(OC(C(=O)O)C(CO)(c2ccccc2)c2ccccc2)n1 (stereo not drawn)
18 | 13.7% | Cc1cc(C)nc(OC(C(=O)O)C(COC(=O)OCC(C)C)(c2ccccc2)c2ccccc2)n1 (stereo not drawn)
19 | 43.2% | COC(c1ccccc1)(c1ccccc1)[C@H](Oc1nc(C)cc(C)n1)C(=O)O
20 | inactive | Cc1cc(C)nc(OC(C(=O)O)C(COC(=O)C(C)(C)C)(c2ccccc2)c2ccccc2)n1 (stereo not drawn)
21 | inactive | Cc1cc(C)nc(OC(C(=O)O)C(COC(=O)N(C)C)(c2ccccc2)c2ccccc2)n1 (stereo not drawn)
22 | inactive | CCCCCC(=O)OCC(c1ccccc1)(c1ccccc1)C(Oc1nc(C)cc(C)n1)C(=O)O (stereo not drawn)
23 | 21.8% | Cc1cc(C)nc(OC(C(=O)O)C(COC(=O)CC(C)C)(c2ccccc2)c2ccccc2)n1 (stereo not drawn)
24 | 9.64% | CC(=O)OCC(c1ccccc1)(c1ccccc1)C(Oc1nc(C)cc(C)n1)C(=O)O (stereo not drawn)
25 | inactive | CCCOCC(c1ccccc1)(c1ccccc1)C(Oc1nc(C)cc(C)n1)C(=O)O (stereo not drawn)
26 | inactive | Cc1cc(C)nc(OC(C(=O)O)C(COCc2ccccc2)(c2ccccc2)c2ccccc2)n1 (stereo not drawn)
27 | 3.4% | COC(=O)OCC(c1ccccc1)(c1ccccc1)C(Oc1nc(C)cc(C)n1)C(=O)O (stereo not drawn)
28 | 22% | Cc1cc(C)nc(OC(C(=O)O)C(COC(=O)OC(C)C)(c2ccccc2)c2ccccc2)n1 (stereo not drawn)
29 | inactive | CCC(C)(C)C(=O)OCC(c1ccccc1)(c1ccccc1)C(Oc1nc(C)cc(C)n1)C(=O)O (stereo not drawn)
30 | inactive | COCC(c1ccccc1)(c1ccccc1)C(Oc1nc(C)cc(C)n1)C(=O)O (stereo not drawn)
31 | 21.7% | CCC(=O)OCC(c1ccccc1)(c1ccccc1)C(Oc1nc(C)cc(C)n1)C(=O)O (stereo not drawn)
32 | 23.4% | C=CCOCC(c1ccccc1)(c1ccccc1)C(Oc1nc(C)cc(C)n1)C(=O)O (stereo not drawn)
33 | 1.11% | CCCC(=O)OCC(c1ccccc1)(c1ccccc1)C(Oc1nc(C)cc(C)n1)C(=O)O (stereo not drawn)
34 | 15.5% | CCOC(=O)OCC(c1ccccc1)(c1ccccc1)C(Oc1nc(C)cc(C)n1)C(=O)O (stereo not drawn)
35 | 15.1% | CCCCOCC(c1ccccc1)(c1ccccc1)C(Oc1nc(C)cc(C)n1)C(=O)O (stereo not drawn)
36 | inactive | Cc1cc(C)nc(OC(C(=O)O)C(COC(=O)OC(C)(C)C)(c2ccccc2)c2ccccc2)n1 (stereo not drawn)
37 | 20.6% | CCOCC(c1ccccc1)(c1ccccc1)C(Oc1nc(C)cc(C)n1)C(=O)O (stereo not drawn)
38 | 5.88% | CCCCC(=O)OCC(c1ccccc1)(c1ccccc1)C(Oc1nc(C)cc(C)n1)C(=O)O (stereo not drawn)
